Assay results reported in patent US20250051263A1, “NOVEL IONIZABLE LIPIDS AND LIPID NANOPARTICLES AND METHODS OF USING THE SAME” (Sail Biomedicines, Inc., priority 2021, published 2025).

Key:
[1] = TNS (pKa) assay, apparent LNP pKa; format: physicochemical; conditions: for pKa (TNS): Example 5 LNP lipid:DOPE:Plant Cholesterol:DMPE-PEG2k 35:16:46.5:2.5, FLUC/EPO 1:1 mRNA, N:P 6:1
Experimental: (protocol adapted from: A Novel Amino Lipid Series for mRNA Delivery: Improved Endosomal Escape and Sustained Pharmacology and Safety in Non-human Primates, Sabnis, Staci et al., Molecular Therapy, Volume 26, Issue 6, 1509-1519) 20 buffers (10 mM sodium phosphate, 10 mM sodium borate, 10 mM sodium citrate, and 150 mM sodium chloride, in Distilled Water) of unique pH values ranging from 3.0-12.0 were prepared using 1M sodium hydroxide and 1M hydrochloric acid. 3.25 uL of LNPs (0.04 mg/mL mRNA, in PBS) were incubated with 2 μL of TNS reagent (0.3 mM, in DMSO) and 90 μL of buffer for each pH value (described above) in a 96-well black-walled plate. Each pH condition was performed in triplicate wells. The TNS fluorescence was measured using a Biotek Cytation Plate reader at excitation/emission wavelengths of 321/445 nm. The fluorescence values were then plotted and fit using a 4-parameter sigmoid curve. From the fit, the pH value yielding the half-maximal fluorescence was calculated and reported as the apparent LNP pKa value.
For pKa measurement, a […] assay was conducted according to those described in Sabnis et al., Molecular Therapy, 26(6):1509-19), which is incorporated herein by reference in its entirety. Briefly, 20 buffers (10 mM sodium phosphate, 10 mM sodium borate, 10 mM sodium citrate, and 150 mM sodium chloride, in distilled Water) of unique pH values ranging from 3.0-12.0 were prepared using 1M sodium hydroxide and 1M hydrochloric acid. 3.25 μL of a LNP composition (0.04 mg/mL mRNA, in PBS) was incubated with 2 μL of TNS reagent (0.3 mM, in DMSO) and 90 μL of buffer for each pH value (described above) in a 96-well black-walled plate. Each pH condition was performed in triplicate wells. The TNS fluorescence was measured using a Biotek Cytation Plate reader at excitation/emission wavelengths of 321/445 nm. The fluorescence values were then plotted and fit using a 4-parameter sigmoid curve. From the fit, the pH value yielding the half-maximal fluorescence was calculated and reported as the apparent LNP pKa value.

Balb/c mice [2] = experiment: In-vivo bioluminescent imaging after IV injection of Fluc mRNA LNP; conditions: IV; for Bioluminescence (IV) Liver / Bioluminescence (IV) Lung / Bioluminescence (IV) Spleen / Bioluminescence (IV) Whole Body / Spleen: Liver Ratio: Example 5 LNP (DOPE 35:16:46.5:2.5), 5 μg FLUC + 5 μg EPO; for Bioluminescence (IV) Liver / Bioluminescence (IV) Lung / Bioluminescence (IV) Spleen / Bioluminescence (IV) Whole Body / Bioluminescence Liver / Bioluminescence Lung / Bioluminescence Spleen: 4-6 hours post-dose; for Spleen: Liver Ratio: ratio of bioluminescence; for Bioluminescence Liver / Bioluminescence Lung / Bioluminescence Spleen: 5 ug Fluc+5 ug EPO mRNA
Experimental: (§1) 8-9 week old female Balb/c mice are utilized for bioluminescence-based ionizable lipid screening efforts. Mice are obtained from Jackson Laboratories (JAX Stock: 000651) and allowed to acclimate for one week prior to manipulations. Animals are placed under a heat lamp for a few minutes before introducing them to a restraining chamber. The tail is wiped with alcohol pads (Fisher Scientific) and 100 μL of a lipid nanoparticle composition descrbed above containing 10 ug total mRNA (5 ug Fluc+5 ug EPO) is injected intravenously using a 29 G insulin syringe (Covidien). Any resulting bleeding is stemmed using a sterile gauze pad (Fisher Scientific) and animals are placed back into their home cage. 4-6 hours post-dose, animals are injected with 200 μL of 15 mg/mL D-Luciferin (GoldBio) and placed in an isoflurane induction chamber set to deliver 2.5% isoflurane delivered at an oxygen flow rate of 1-2 liters per min. After 5 minutes of isoflurane exposure, mice are placed in set nose cones inside the IVIS Lumina LT imager (PerkinElmer). LivingImage software is utilized for imaging. Whole body bio-luminescence is captured at auto-exposure after which animals are removed from the IVIS and placed into a CO2 chamber for euthanasia. Cardiac puncture is performed on each animal after placing it in dorsal recumbency, and blood collection is performed using a 25 G insulin syringe (BD). Blood is collected in Lithium-Heparin coated tubes (Fisher Scientific) and immediately placed on ice. Once all blood samples are collected, tubes are spun at 2000 G for 10 minutes using a tabletop centrifuge and plasma is aliquoted into individual Eppendorf tubes (Fisher Scientific) and stored at −80 C for subsequent EPO quantification. EPO levels in plasma are determined using EPO MSD kit (Meso Scale Diagnostics).
(§2) 8-9 week old female Balb/c mice were utilized for bioluminescence-based ionizable lipid screening efforts. Mice were obtained from Jackson Laboratories (JAX Stock: 000651) and allowed to acclimate for one week prior to manipulations. Animals were placed under a heat lamp for a few minutes before introducing them to a restraining chamber. The tail was wiped with alcohol pads (Fisher Scientific) and, for each LNP composition descrbed above, 100 μL of a lipid nanoparticle composition descrbed above containing 10 μg total mRNA (5 μg Fluc+5 μg EPO, 5 μg Fluc+5 μg Cre, or 5 μg EGFP) was injected intravenously using a 29 G insulin syringe (Covidien).
(§3) 4-6 hours post-dose, animals were injected with 200 μL of 15 mg/mL D-Luciferin (GoldBio), and placed in set nose cones inside the IVIS Lumina LT imager (PerkinElmer). LivingImage software was utilized for imaging. Whole body bio-luminescence was captured at auto-exposure after which animals are removed from the IVIS and placed into a CO2 chamber for euthanasia. Cardiac puncture was performed on each animal after placing it in dorsal recumbency, and blood collection was performed using a 25 G insulin syringe (BD). Once all blood samples were collected, tubes are spun at 2000 G for 10 minutes using a tabletop centrifuge and plasma was aliquoted into individual Eppendorf tubes (Fisher Scientific) and stored at −80° C. for subsequent EPO quantification. EPO levels in plasma were determined using EPO MSD kit (Meso Scale Diagnostics).

Balb/c mice [3] = experiment: EPO levels in plasma by EPO MSD kit after IV injection of EPO mRNA LNP; format: in vivo
Experimental: as §1, §2, §3

[4] = LNP size and polydispersity, Zetasizer Ultra; format: physicochemical; conditions: Example 5 LNP lipid:DOPE:Plant Cholesterol:DMPE-PEG2k 35:16:46.5:2.5, FLUC/EPO 1:1 mRNA, N:P 6:1
Excerpt: (§4) All other compositions (i.e., compositions of MC3 (a commercially available ionizable lipid having a chemical name of (6Z,9Z,28Z,31Z)-heptatriacont-6,9,28,31-tetraene-19-yl 4-(dimethylamino)butanoate, and compositions of novel ionizable lipids 7669, 7671, 7668, 767, 7650) are composed of ionizable lipid:structural lipid:sterol:PEG-lipid (SDA lipid #:DSPC:cholesterol:14:0 PEG2000 PE) at a molar ratio of […], respectively. Lipids are solubilized in ethanol. Compositions are then handled as above, except the formulations are maintained at ionizable lipid to mRNA N:P ratio of 6:1. The lipid mix and mRNA solution are mixed at a 1:3 ratio by volume, respectively, on a NanoAssemblr Ignite (Precision Nanosystems) at a total flow rate of 9 mL/min. Resulting compositions are then loaded into Slide-A-Lyzer G2 dialysis cassettes (10 k MWCO) and dialyzed in 200 times sample volume of 1×PBS for 4 hrs at room temp with gentle stirring. The PBS is refreshed, and the compositions are further dialyzed for at least 14 hrs at 4° C. with gentle stirring. The dialyzed compositions are then collected and concentrated by centrifugation at 2000×g using Amicon Ultra centrifugation filters (100 k MWCO). Concentrated particles are characterized for size, polydispersity, and particle concentration using Zetasizer Ultra (Malvern Panalytical) and for mRNA encapsulation efficiency using Quant-iT RiboGreen RNA Assay Kit (ThermoFisher Scientific).
(§5) The lipid mix and mRNA solution were mixed at a 1:3 ratio by volume, respectively, on the NanoAssemblr Ignite (Precision Nanosystems) at a total flow rate of 9 mL/min. Resulting formulations were then loaded into Slide-A-Lyzer G2 dialysis cassettes (10 k MWCO) and dialyzed in 200 times sample volume of 1×PBS for 2 hrs at room temperature. The PBS was refreshed, and the formulations were further dialyzed for at least 14 hrs at 4° C. with gentle stirring. The dialyzed formulations were then collected and concentrated by centrifugation at 3000×g using Amicon Ultra centrifugation filters (100 k MWCO). The concentrated formulations were characterized for size, polydispersity, and particle concentration using Zetasizer Ultra (Malvern Panalytical) and for mRNA encapsulation efficiency using Quant-iT RiboGreen RNA Assay Kit (ThermoFisher Scientific).
(§6) For each LNP composition, the lipid mix and mRNA solution were mixed at a 1:3 ratio by volume, respectively, on a NanoAssemblr Ignite (Precision Nanosystems) at a total flow rate of 9 mL/min. The resulting compositions were then loaded into Slide-A-Lyzer G2 dialysis cassettes (10 k MWCO) and dialyzed in 200 times sample volume of 1×PBS for 2 hours at room temperature with gentle stirring. The PBS was refreshed, and the compositions were further dialyzed for at least 14 hours at 4° C. with gentle stirring. The dialyzed compositions were then collected and concentrated by centrifugation at 3000×g using Amicon Ultra centrifugation filters (100 k MWCO). The concentrated particles were characterized for size, polydispersity, and particle concentration using Zetasizer Ultra (Malvern Panalytical) and for mRNA encapsulation efficiency using Quant-iT RiboGreen RNA Assay Kit (ThermoFisher Scientific).

[5] = mRNA encapsulation efficiency, Quant-iT RiboGreen RNA Assay; format: physicochemical; conditions: Example 5 LNP lipid:DOPE:Plant Cholesterol:DMPE-PEG2k 35:16:46.5:2.5, FLUC/EPO 1:1 mRNA, N:P 6:1
Excerpt: as §4, §5, §6

[6] = LNP lipid:DOPE:Plant Chol.:DMPE-PEG2k 35:16:46.5:2.5 (Table 1)
[7] = LNP lipid:DSPC:Plant Chol.:DMPE-PEG2k 50:10:38.5:1.5
[8] = Example 5 LNP (DOPE 35:16:46.5:2.5), 5 μg FLUC + 5 μg EPO

| Structure (SMILES) | pKa (TNS) [1] | pKa ([1]; LNP ionizable lipid:DOPE:Plant Chol.:DMPE-PEG2k 35:16:46.5:2.5 (Table 1)) | pKa ([1]; LNP ionizable lipid:DSPC:Plant Chol.:DMPE-PEG2k 50:10:38.5:1.5) | Bioluminescence (IV) Liver (Balb/c mice [2]) | Bioluminescence (IV) Lung (Balb/c mice [2]) | Bioluminescence (IV) Spleen (Balb/c mice [2]) | Bioluminescence (IV) Whole Body (Balb/c mice [2]) | Spleen: Liver Ratio (Balb/c mice [2]) | Bioluminescence Liver (Balb/c mice [2]; [6]) | Bioluminescence Lung (Balb/c mice [2]; [6]) | Bioluminescence Spleen (Balb/c mice [2]; [6]) | Bioluminescence Liver (Balb/c mice [2]; [7]) | Bioluminescence Lung (Balb/c mice [2]; [7]) | Bioluminescence Spleen (Balb/c mice [2]; [7]) | hEPO (Balb/c mice [3]; [8]) | hEPO (Balb/c mice [3]; LNP lipid:DOPE:Plant Chol.:DMPE-PEG2k 35:16:46.5:2.5 (Table 1), 5 ug Fluc+5 ug EPO mRNA) | hEPO (Balb/c mice [3]; LNP lipid:DSPC:Plant Chol.:DMPE-PEG2k 50:10:38.5:1.5, 5 ug Fluc+5 ug EPO mRNA) | PDI [4] | Size (nm) [4] | % EE [5] |
| --- | --- | --- | --- | --- | --- | --- | --- | --- | --- | --- | --- | --- | --- | --- | --- | --- | --- | --- | --- | --- |
| CCCCCCCCCCCOC(=O)CCCCCN(CCCCCCCC(=O)OC(CCCCCCCC)CCCCCCCC)CCNC(=O)CCC(=O)NCCN(CCCCCCCC(=O)OC(CCCCCCCC)CCCCCCCC)CCCCCC(=O)OCCCCCCCCCCC [Compound 2221, 1-octylnonyl 8-[2-[[4-[2-[[8-(1-octylnonoxy)-8-oxo-octyl]-(6-oxo-6-undecoxy-hexyl)amino]ethylamino]-4-oxo-butanoyl]amino]ethyl-(6-oxo-6-undecoxy-hexyl)amino]octanoate] | 6.36 | 6.36 | 6.29 | 3.0E+06 | 1.9E+03 | 2.7E+05 | 2.2E+07 | 0.082 | 3.05E+06 | 1.88E+03 | 2.68E+05 | 2.94E+06 | 5.09E+03 | 1.23E+06 | 4.7E+05 | 4.71E+05 | 4.46E+05 | – | – | – |
| CCCCCCCCCCCOC(=O)CCCCCN(CCCCCCCC(=O)OC(CCCCCCCC)CCCCCCCC)CCNC(=O)CCCC(=O)NCCN(CCCCCCCC(=O)OC(CCCCCCCC)CCCCCCCC)CCCCCC(=O)OCCCCCCCCCCC [Compound 2273, 1-octylnonyl 8-[2-[[5-[2-[[8-(1-octylnonoxy)-8-oxo-octyl]-(6-oxo-6-undecoxy-hexyl)amino]ethylamino]-5-oxo-pentanoyl]amino]ethyl-(6-oxo-6-undecoxyhexyl)amino]octanoate] | 6.57 | – | – | 7.6E+06 | 1.0E+04 | 5.7E+05 | 4.2E+07 | 0.080 | – | – | – | – | – | – | 8.5E+05 | – | – | – | – | – |
| CCCCCCCCC(CCCCCCCC)OC(=O)CCCCCCCN(CCCCCCCOC(=O)C(CCCCCCCC)CCCCCCCC)CCNC(=O)CCC(=O)NCCN(CCCCCCCOC(=O)C(CCCCCCCC)CCCCCCCC)CCCCCCCC(=O)OC(CCCCCCCC)CCCCCCCC [Compound 2323, 7-[2-[[4-[2-[7-(2-octyldecanoyloxy)heptyl-[8-(1-octylnonoxy)-8-oxo-octyl]amino]ethylamino]-4-oxo-butanoyl]amino]ethyl-[8-(1-octylnonoxy)-8-oxo-octyl]amino]heptyl 2-octyldecanoate] | – | – | – | 3.2E+07 | 7.7E+03 | 8.7E+05 | 2.1E+08 | 0.027 | – | – | – | – | – | – | 3.1E+06 | – | – | 0.14 | 91.0 nm | 90.7% |
